In the NIST ThermoML archive (doi:10.1021/je301344y):

Conditions: Fluid (supercritical or subcritical phases), Pulse-echo method

C=CC [propene]
Conditions	speed of sound [m/s]
240 K, 7107.3 kPa	1153.2
240 K, 8108.1 kPa	1161.6
240 K, 9108.7 kPa	1169.9
240 K, 10109 kPa	1178
240 K, 12611 kPa	1197.8
240 K, 15113 kPa	1216.8
240 K, 17614 kPa	1235.1
240 K, 20116 kPa	1252.7
240 K, 25119 kPa	1286.5
240 K, 30122 kPa	1318.2
240 K, 35126 kPa	1348.3
240 K, 40129 kPa	1377
240 K, 45132 kPa	1404.3
240 K, 50136 kPa	1430.5
240 K, 60144 kPa	1479.9
240.01 K, 1303 kPa	1101.2
240.01 K, 2103.6 kPa	1108.7
240.01 K, 3104.3 kPa	1118
240.01 K, 4105 kPa	1127.1
240.01 K, 5105.7 kPa	1135.9
240.01 K, 6106.4 kPa	1144.7
260 K, 1303.3 kPa	970.62
260 K, 2103.9 kPa	979.88
260 K, 3104.6 kPa	991.17
260 K, 4105.3 kPa	1002.2
260 K, 5106.1 kPa	1012.9
260 K, 6106.6 kPa	1023.3
260 K, 7107.2 kPa	1033.5
260 K, 8107.8 kPa	1043.4
260 K, 9108.2 kPa	1053.1
260 K, 10109 kPa	1062.6
260 K, 12613 kPa	1085.6
260 K, 15114 kPa	1107.5
260 K, 17616 kPa	1128.4
260 K, 20118 kPa	1148.4
260 K, 25121 kPa	1186.3
260 K, 30124 kPa	1221.6
260 K, 35128 kPa	1254.8
260 K, 40131 kPa	1286.2
260 K, 45134 kPa	1316
260 K, 50138 kPa	1344.4
260 K, 60145 kPa	1397.5
260 K, 70152 kPa	1446.7
260 K, 80158 kPa	1492.6
260 K, 90165 kPa	1535.6
260 K, 100172 kPa	1576.3
280 K, 1301.6 kPa	836.39
280 K, 2102.4 kPa	848.18
280 K, 3103.2 kPa	862.38
280 K, 4104 kPa	876.04
280 K, 5104.9 kPa	889.2
280 K, 6105.8 kPa	901.91
280 K, 7107.3 kPa	914.23
280 K, 8108.1 kPa	926.15
280 K, 9108.8 kPa	937.72
280 K, 10110 kPa	948.97
280 K, 12611 kPa	975.84
280 K, 15113 kPa	1001.1
280 K, 17613 kPa	1025
280 K, 20117 kPa	1047.8
280 K, 25118 kPa	1090.3
280 K, 30122 kPa	1129.5
280 K, 35126 kPa	1166
280 K, 40129 kPa	1200.2
280 K, 45133 kPa	1232.4
280 K, 50138 kPa	1263.1
280 K, 60144 kPa	1320
280 K, 70151 kPa	1372.2
280 K, 80157 kPa	1420.7
280 K, 90164 kPa	1466.1
280 K, 100171 kPa	1508.7
299.99 K, 1403.2 kPa	696.05
299.99 K, 2103.7 kPa	710.03
299.99 K, 4105.1 kPa	746.66
299.99 K, 8107.8 kPa	809.26
299.99 K, 15113 kPa	898.02
299.99 K, 20116 kPa	951.33
299.99 K, 25119 kPa	998.93
299.99 K, 25120 kPa	998.96
299.99 K, 30123 kPa	1042.3
299.99 K, 35126 kPa	1082.1
299.99 K, 40130 kPa	1119.3
299.99 K, 50137 kPa	1186.8
299.99 K, 60144 kPa	1247.4
299.99 K, 70151 kPa	1302.7
299.99 K, 80156 kPa	1353.6
299.99 K, 80158 kPa	1353.7
299.99 K, 90164 kPa	1401.1
299.99 K, 100172 kPa	1445.6
300 K, 1402.2 kPa	696.01
300 K, 1402.5 kPa	696
300 K, 1402.7 kPa	696.01
300 K, 2102.7 kPa	709.98
300 K, 2104.1 kPa	710.04
300 K, 3103.2 kPa	728.84
300 K, 3104.7 kPa	728.9
300 K, 3105.1 kPa	728.91
300 K, 4103.8 kPa	746.6
300 K, 4105.8 kPa	746.67
300 K, 5104.2 kPa	763.4
300 K, 6104.7 kPa	779.36
300 K, 6106.5 kPa	779.42
300 K, 7107.2 kPa	794.65
300 K, 8106 kPa	809.21
300 K, 8107.2 kPa	809.25
300 K, 9106.7 kPa	823.24
300 K, 10107 kPa	836.75
300 K, 10109 kPa	836.79
300 K, 12611 kPa	868.58
300 K, 15113 kPa	898
300 K, 17613 kPa	925.47
300 K, 20114 kPa	951.3
300 K, 25118 kPa	998.93
300 K, 30121 kPa	1042.3
300 K, 35124 kPa	1082.1
300 K, 40128 kPa	1119.2
300 K, 45131 kPa	1154
300 K, 50135 kPa	1186.8
300 K, 60142 kPa	1247.4
300 K, 70149 kPa	1302.6
300 K, 90163 kPa	1401.1
300 K, 100170 kPa	1445.6
319.99 K, 22616 kPa	886.71
319.99 K, 100172 kPa	1386.9
320 K, 2104.4 kPa	556.2
320 K, 3105.2 kPa	584.43
320 K, 4105.8 kPa	609.63
